From patent US6451288B1, “Method of treating lung diseases with uridine 5′-diphosphate and analogs thereof” (The University of North Carolina at Chapel Hill, priority 1997, dated 2002)

Columns and labels:
[1] = test system: human nasal epithelial cells; assay: [3H]inositol phosphate formation in polarized human nasal epithelial cells; assay type: cell-based
Description: (§1) Human nasal epithelial cells were harvested from turbinates using protease XIV (Sigma, St. Louis, Mo.) for 24-48 h at 4° C., as previously described. R. Wu, et al., Am. Rev. Respir. Dis. 132, 311-320 (1985). Cytosolic Ca^2+ and inositol phosphate measurements were made on nasal cell monolayers plated on porous Transwell Col filters (pore diameter 0.45 μm; Costar, Cambridge, Mass.) and maintained in Ham's F12 media supplemented with 10 ng/mL epidermal growth factor, 3.75 ng/mL endothelial cell growth factor, 500 ng/mL hydrocortisone, 5 ng/mL insulin, and 1 mM CaCl2 (Ham's F12+4X medium). Assays were carried out 7 to 10 days after seeding, a time coincident with the development of the maximal transepithelial potential difference according to N. Nakahata & T. K. Harden, Biochem. J. 241, 337-344 (1987).
Confluent human nasal epithelial cells as described in Example 1 were labeled for 18 h in inositol-free DMEM containing 4.5g/L glucose and 5 μCi/mL of [^3H]myo-inositol. These cells were pre-incubated with 10 mM LiCl and challenged with agonists for an additional 10 min. No changes of medium were made subsequent to addition of [^3H]myo-inositol to avoid release of endogenous ATP from stressed cells. E. R. Lazarowski et al., Br. J Pharmacol. 116, 1619-1627 (1995). Incubations were terminated by addition of 5% ice-cold trichloroacetic acid and the resultant [^3H]inositol phosphates were separated on Dowex AG1-X8 columns as described in A. M. Paradiso et al., Nature 377, 643-646 (1995).

[2] = test system: human nasal epithelial cells; assay: Cytosolic Ca2+ measurement (Fura-2) in human nasal epithelial cells; assay type: cell-based
Description: as §1
(§2) Nasal cells grown on Transwell Col filters affixed to O-rings were maintained in F12+4X medium and studied 7-10 days after cell plating as described above. For Ca^2+i measurements, cells were loaded with Fura-2 and mounted in a miniature Ussing chamber over an objective of a microscope (Zeiss) coupled to a microfluorimeter, and cytosolic Ca^2+i levels were quantitated as previously described in Paradiso et al., supra. The fluorescence intensity ratio (excitation 340/380; emission λ 450 nm) was collected from a field of 30-40 nasal cells on monolayers and converted to Ca^2+ as previously described in E. H. Larsen et al, J. Physiol. 424, 109-131 (1990). For simultaneous measurements of Cl^− secretion, the transepithelial potential difference (TEP) was measured by a Voltage-Clamp/Pulse Generator (Model VCC600, Physiologic Instruments, San Diego, Calif.) and recorded on a two-channel recorder (Linsesis Model L200S). To calculate changes in Cl^− secretory current (ΔICl^−), a defined 1 sec current pulse was delivered across the monolayer every 10 sec. The nasal tissue was converted from its native Na^+ absorptive state to a Cl^− secretory state by exposing monolayers to a luminal medium containing 0 Na^+/low Cl^− and to a basolateral medium of Krebs bicarbonate Ringer solution.

[3] = test system: human nasal epithelial cells; assay: Cl- secretion (transepithelial potential difference, Ussing chamber) in human nasal epithelial cells; assay type: cell-based
Description: as §1, §2

sheep [4] = assay: Mucociliary clearance in sheep; assay type: in vivo; details: 400 μmole nebulized
Description: Healthy adult ewes were given ^99mTc-labeled serum albumin (^99mTc-HCA) via a nebulized aerosol. The (^99mTc-HCA)(20 mCi) was administered over 5 minutes through a nasotracheal tube introduced under local anesthesia with 2% lidocaine. After administration of the ^99Tc-HCA, the animals were given the test compound UDP. The test compound was administered by nebulization in a volume of 4 mL over a period of 10-12 min. The test compound was given at a dose of 400 μmole. After the administration of the test compound, the animals were extubated. Clearance of the radiolabeled particles was monitored with a gamma camera. Measurements were made a 0, 5, 10, 15, 20, 25, 30, 35, 40, 45, 50, 55, 60, 75, 90, 105 and 120 minutes. Results of this study (n=7) have shown that the test compound promotes clearance of radiolabeled particles when compared to the saline control. […] The response to UDP was maximal at 60 minutes and was maintained for the second hour of the study. The results of this experiment are illustrated graphically in FIG. 6.

sheep [5] = assay: Tracheal mucus velocity in sheep; assay type: in vivo; details: 400 μmole nebulized
Source text: To measure the effect of UDP on tracheal mucus velocity (TMV), the nasal passages of conscious adult ewes were anesthetized with a 2% lidocaine solution. After local anesthesia was produced, a modified endotracheal tube (7.5 mm) was placed such that the cuff was just below the vocal cords (as verified by fluoroscopy). Inspired air was warmed and humidified. The cuff on the endotracheal tube was inflated only during administration of the test compound to minimize possible impairment of TMV by the cuff. Test compounds were administered by nebulization in a volume of 4 mL over a period of 10-12 min. TMV was measured by fluoroscopy. Ten to twenty radiopaque disks (Teflon/bismuth trioxide; 1 mm diameter; 0.8 mm thick, weighing 1.8 mg) were introduced into the trachea through a modified suction catheter with a puff of compressed air (3-4 L/min). Velocities of the individual disks were recorded on videotape form a portable image intensifier unit. Individual disk velocities were calculated by measuring the distance traveled by each disk during a 1 min observation period. Values reported are the means of the individual disk velocities. A collar was worn by the sheep, which was used as a standard to correct for magnification errors inherent in the fluoroscope.

P2Y2 receptor = P2Y2 receptor (Homo sapiens, UniProt P41231); details: UTP-free UDP; cited from earlier work
[6] = subsequent 3 μM then 10 μM UDP, mucosal (desensitization)

P2Y2 receptor, sequence (P41231 whole entry): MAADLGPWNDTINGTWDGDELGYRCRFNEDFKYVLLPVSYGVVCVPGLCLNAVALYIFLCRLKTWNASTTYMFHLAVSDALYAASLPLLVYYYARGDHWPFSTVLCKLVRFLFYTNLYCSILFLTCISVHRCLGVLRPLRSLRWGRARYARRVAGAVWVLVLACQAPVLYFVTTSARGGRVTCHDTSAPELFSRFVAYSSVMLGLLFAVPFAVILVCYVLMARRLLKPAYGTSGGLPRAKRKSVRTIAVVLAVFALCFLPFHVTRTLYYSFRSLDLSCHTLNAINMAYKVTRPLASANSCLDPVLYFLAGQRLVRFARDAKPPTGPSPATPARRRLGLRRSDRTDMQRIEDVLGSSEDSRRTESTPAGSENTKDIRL

For `O=c1ccn([C@@H]2O[C@H](COP(=O)(O)OP(=O)(O)O)[C@@H](O)[C@H]2O)c(=O)[nH]1` [UDP, uridine 5′-diphosphate], the “Accumulation of [3H]inositol phosphates, mucosal” value ([1]; 100 μM, mucosal) was “marked accumulation”, the “Effect on inositol phosphate accumulation, serosal bath” value ([1]; 100 μM, serosal) was “negligible effect” and the EC50 ([1]; Homo sapiens, Epithelial cell, 10 min, added to mucosal medium, 10 min, read-out: EC50 for stimulating inositol phosphate formation) was 0.19 ± 0.027 µM. For the same molecule, the “Maximal inositol phosphate effect relative to response with mucosal UTP” value ([1]; mucosal, 100 μM) was “approximately one half”, the “ΔCa2+ (mobilization of intracellular calcium)” value ([2]; 3 μM, mucosal bath, first addition) was 66 ± 12 nM and the “Maximal calcium mobilization effect relative to response with mucosal UTP” value ([2]; mucosal, 100 μM) was “approximately one half”. For the same molecule, the “ΔCa2+ after subsequent addition” value [2, 6] was 0, the “ΔICl-, mucosal” value ([3]; 3 μM, mucosal) was 16±3 μA·cm^2 and the “Cl- secretory response (ΔICl-)” value ([3]; 3 μM, mucosal bath, first addition, n=8) was −16.3±3 μA/cm^2. For the same molecule, the “ΔICl-, serosal” value ([3]; 3 μM, serosal) was 0±0 μA·cm^2, the “Magnitude of Cl- secretion response relative to mucosal UTP response” value ([3]; mucosal) was “approximately one half” and the “ΔICl- after subsequent addition” value [3, 6] was 0. The “Time of maximal response (clearance)” value (sheep [4]) was 60 min, the “Maximal effect, clearance of radiolabeled particles” value (sheep [4]; n=7) was 33.6±1.6 % clearance and the “Time of maximal effect after administration (TMV)” value (sheep [5]) was 15 min. The “Activity at the P2Y2 receptor” value (P2Y2 receptor) was “essentially inactive”.
